{"source": "paper PMC3681751", "about": "“Identification of a Novel Antimicrobial Peptide from Human Hepatitis B Virus Core Protein Arginine-Rich Domain (ARD)” (PLoS Pathogens, 2013)", "key": {"pSUPER plasmid DNA": {"system": "pSUPER plasmid DNA", "assay": "Gel retardation assay (DNA binding)", "conditions": "30 minutes at 37°C, 1% agarose gel; N/P = peptide amino nitrogen / DNA phosphate", "experimental": "The proportion between amino nitrogen (NH3 ^+) of HBc147-183 and phosphate (PO4 ^−) of DNA was defined as N/P ratio [35]. Briefly, HBc147-183 was incubated with pSUPER plasmid DNA at different N/P ratio (0, 0.2, 0.4, 0.6, 0.8, 1, 2, 3 and 4) for 30 minutes at 37°C. The mobility of pSUPER plasmid DNA was analyzed by electrophoresis on 1% agarose gel."}, "S. aureus [1]": {"system": "S. aureus", "assay": "Killing kinetics", "format": "cell-based, Staphylococcus aureus", "conditions": "4 µM peptide (1×MBC), 37°C, triplicates", "experimental": "For measurement of killing kinetics, bacteria and peptides were prepared as described above. Fifty µl of bacteria were mixed with fifty µl of peptides at the concentrations corresponding to MBC and were incubated at 37°C. At the indicated time, bacteria were serially diluted and placed on Mueller-Hinton broth agar plates for the viability measurement."}, "Vero cells": {"system": "Vero cells", "assay": "Cytotoxicity, MTT assay", "format": "cell-based, monkey", "conditions": "1 hour at 37°C; HBc147-183 at 100 µM, melittin at 3.125 µM; triplicates", "experimental": "Cytotoxicity was measured for HepG2, Huh7, HEK293, and Vero cells by MTT assay. Cells were seeded at 10^4 cells/well in a 96-well plate and serial dilutions of peptides were added into each well. PBS was used as a negative control and melittin was used as a positive control. After 1 hour of incubation, the medium were replaced by fresh medium containing 10% MTT solution (Promega), and the plate was incubated for 4 hours in 5% CO2 at 37°C. The absorbance at the wavelength of 595 nm was measured by an ELISA reader (Bio-Rad model 680)."}, "[2]": {"assay": "In vitro peptide-Lipid A binding on streptavidin beads (LAL test)", "design": "species or system Escherichia coli", "conditions": "biotinylated peptide 0-2.5 µM on streptavidin beads, 200 µg/ml lipid A, triplicates", "experimental": "Several kinds of peptide-LPS or peptide-Lipid A binding assays were performed in this study: 1) Streptavidine-conjugated beads (Dynabeads MyOne Streptavidin T1, Invitrogen) were blocked by P. aeruginosa LPS (Sigma) at 37°C for 1.5 hour. After washing with PBST (PBS, pH 7.4 containing 0.1% (w/v) Tween-20), aliquots containing 250 pmol streptavidine-conjugated beads were incubated with a reaction mixture overnight at 4°C. The reaction mixture was prepared by mixing increasing amounts of biotinylated peptide HBc147-183 (0, 0.004, 0.02, 0.1, 0.5 and 2.5 µM) and 5 µg/ml P. aeruginosa LPS (Sigma) or 200 µg/ml E. coli lipid A (Sigma), at 37°C for 3 hour. After incubation overnight at 4°C, the reduction of LPS (or Lipid A) in the supernatants were measured by the Limulus Amebocyte Lysate (LAL) test (Charles River Endosafe) with an ELISA reader (Molecular Devices). The amount (EU/ml) of LPS was calculated according to the standard curve prepared with Endosafe Control Srandard Endotoxin. […] After trypsinization, the trypsin-released LPS in the supernatants were collected and measured by the Limulus Amebocyte Lysate (LAL) test. […] Plate-bound HBc147-183 was measured by streptavidin conjugated with HRP (1∶10000 dilution) for 1 hour at 37°C. […] The absorption was measured at 450 nm with a reference wavelength at 655 nm."}, "S. aureus [3]": {"system": "S. aureus", "assay": "SYTOX Green uptake (membrane permeabilization)", "format": "cell-based, Staphylococcus aureus", "conditions": "4 µM peptide; 10^7 CFU, 1 µM SYTOX Green, 37°C", "experimental": "Briefly, bacteria (10^7 CFU) were prepared and mixed with 1 µM SYTOX Green (Invitrogen) for 15 minutes in the dark. […] Melittin (Sigma), the major toxin of bee venom, was used as a positive control to provide maximal permeabilization."}, "[4]": {"system": "Klebsiella pneumoniae Xen39", "assay": "IVIS imaging of infected mice", "format": "in vivo", "conditions": "10 mg/kg at 1 hour, imaged 4 hours post-inoculation; 10^7 cfu/mouse; n = 5; P<0.01 vs PBS"}}, "note": "Residues, ends and D or L forms follow the SMILES beside them."}
{"smiles": "CC(C)[C@H](NC(=O)[C@@H](NC(=O)[C@@H](N)[C@@H](C)O)C(C)C)C(=O)N[C@@H](CCCNC(=N)N)C(=O)N[C@@H](CCCNC(=N)N)C(=O)N[C@@H](CCCNC(=N)N)C(=O)NCC(=O)N[C@@H](CCCNC(=N)N)C(=O)N[C@@H](CO)C(=O)N1CCC[C@H]1C(=O)N[C@@H](CCCNC(=N)N)C(=O)N[C@@H](CCCNC(=N)N)C(=O)N[C@@H](CCCNC(=N)N)C(=O)N[C@H](C(=O)N1CCC[C@H]1C(=O)N[C@@H](CO)C(=O)N1CCC[C@H]1C(=O)N[C@@H](CCCNC(=N)N)C(=O)N[C@@H](CCCNC(=N)N)C(=O)N[C@@H](CCCNC(=N)N)C(=O)N[C@@H](CCCNC(=N)N)C(=O)N[C@@H](CO)C(=O)N[C@@H](CCC(N)=O)C(=O)N[C@@H](CO)C(=O)N1CCC[C@H]1C(=O)N[C@@H](CCCNC(=N)N)C(=O)N[C@@H](CCCNC(=N)N)C(=O)N[C@@H](CCCNC(=N)N)C(=O)N[C@@H](CCCNC(=N)N)C(=O)N[C@@H](CO)C(=O)N[C@@H](CCC(N)=O)C(=O)N[C@@H](CO)C(=O)N[C@@H](CCCNC(=N)N)C(=O)N[C@@H](CCC(=O)O)C(=O)N[C@@H](CO)C(=O)N[C@@H](CCC(N)=O)C(=O)N[C@@H](CS)C(=O)O)[C@@H](C)O", "note": "[HBc147-183] (H-TVVRRRGRSPRRRTPSPRRRRSQSPRRRRSQSRESQC-OH; N-terminus and C-terminus assumed)", "values": [{"measurement": "N/P ratio at which plasmid DNA was completely retarded", "setting": "pSUPER plasmid DNA", "value": 1}, {"measurement": "Time to complete killing", "setting": "S. aureus [1]", "value": 120, "unit": "min"}, {"measurement": "Cell viability / cytotoxicity (MTT)", "setting": "Vero cells", "value": "low level of cytotoxicity"}, {"measurement": "Binding to Lipid A", "setting": "[2]", "value": "Lipid A can bind to HBc147-183 directly"}, {"measurement": "Membrane permeabilization (SYTOX Green uptake)", "setting": "S. aureus [3]", "value": "not able to induce membrane permeabilization"}, {"measurement": "Bioluminescence of infected mice", "setting": "[4]", "value": "very weak"}]}
